The nature of assay [1]: Aldehyde levels in salad dressing (DNPH derivatization, HPLC). The conditions noted are these: ~2.7% (w/w) in ranch dressing, room temperature, versus untreated (FIG. 9). Here is the method:
Aldehyde levels in corn oil or other foods (such as salad dressing) were measured using the DNPH derivatization followed by HPLC analysis method (J. Ag. Food Chem. Deng, F-Y. et al, (2014) 62, 52, 12545-12552; Food Res. Internat., Cao, J. et al, (2014) 64, 901-907). Alternatively, or in addition to aldehyde measurements by HPLC, organoleptic evaluation to assess the level of rancidity in a sample was done.
Treatment of Salad Dressing with a 2-Oxoacid Salt • Sample: Ranch dressing (chili lime flavor) • 2-Oxoacid salt used: Phenyl pyruvic acid dimethyldecylammonium salt • Dosage: ˜2.7% (w/w) (0.4 g of the salt was added to 15 g of salad dressing). • Storage conditions: Room temperature, capped loosely, and mixed periodically.

Assay [2] in a line: POV of corn oil treated with SOP (POV titration). The conditions noted are these: 0.4 mL in 8 mL corn oil, versus untreated corn oil (FIG. 3, 4). The protocol: The POV of these solutions was measured periodically after standing on the laboratory benchtop at ambient light and temperature conditions.
Into a 15 mL glass vial was placed 0.201 gm of AKG and 2.011 gm of DET. The mixture was stirred with a small magnetic stirrer at room temperature over a weekend (approximately 3 days). However, not all of the AKG dissolved, so the vial was placed in a heating block at 90° C. for 15 minutes, and a clear solution was obtained. Upon cooling and standing for several days, no solid precipitated out. This material (0.4 mL) was diluted into 8 mL of corn oil to start the experiment. A sample was also made from just 0.4 mL of DET in 8 mL of corn oil. POV titration measurements were taken periodically of each sample versus untreated corn oil.
The performance of the SOPs were monitored by POV titration as described in Flavor & Fragrance Journal, M. Calandra and Y. Wang, 2020, 35:107-113 or as per the IFRA POV method (see www.ifraorg.org).

Where a name gives a salt, the structure may show the parent alone.

On to “Phenyl pyruvic acid dimethyldecylammonium salt”, for which, in assay [1], the “aldehyde concentration (hexanal or 2-nonenal) in salad dressing” value is recorded as “aldehyde levels were lower”.

On to `CCOC(=O)C(O)C(O)C(=O)OCC` (centres unmarked) [DET, diethyl tartrate], for which, in assay [2], the “POV of corn oil” value is given as “some measurable activity toward reducing the POV”.

These data come from patent publication US20240225983A1, “COMPOSITIONS AND METHODS FOR PREVENTING OR REDUCING AUTOXIDATION OF FRAGRANCE AND FOOD OILS” (Firmenich SA, priority 2021, published 2024).
